Results on 92 compounds are retold here after PubChem BioAssay AID1508591.

One may read the half-life as the time needed for the level to fall by half in the phase considered. Low readings indicate fast loss, high ones slow loss.

For this series the following is noted: rat; liver microsomes; pH 7.4; 15.0 min; 1.0 µM.
The compound `CCC(CC)c1cc([C@H]2CN3CC[C@H]2C[C@@H]3CNS(=O)(=O)c2cccs2)nc(-c2ccncc2)n1` yielded a half-life above 30 min. `O=C(Nc1nc(-c2ccccc2)cs1)c1ccncc1NS(=O)(=O)c1ccc(F)cc1Cl` showed a half-life of 19 min. Take `CCCN(C(=O)c1sc2nc3n(c(=O)c2c1C)CCCC3)c1ccccc1C`: the half-life stood at 1.36 min. As to `Cc1cc(-c2nnc3n2CCCCC3)c(C)n1-c1cccc(Cl)c1`, the half-life stood at 1.95 min. Consider `Cc1cccc(-n2nc(C)c3c2NC(=O)CSC3c2ccccc2Cl)c1` (configuration not stated), for which the half-life is 1.63 min.

With `COc1cccc(-c2csc(NC(=O)c3ccncc3NS(=O)(=O)c3ccc(C)cc3)n2)c1`, the half-life amounted to 1.85 min. The result for `CC(C)(C)n1nc(-c2ccc(Cl)cc2)c2c(N)ncnc21` reads above 30 min; that for `O=C(O)c1cn(C2CC2)c2cc(N3C[C@@H]4C[C@H]3CN4)c(F)cc2c1=O`, above 30 min. The result for `Cc1ccc(S(=O)(=O)Nc2ccc(C(=O)Nc3ncc(-c4ccccc4)s3)cc2)cc1` reads 11 min; that for `N#Cc1cc(-c2nc(Nc3ccc(F)c(F)c3)c3ccccc3n2)ccn1`, above 30 min; that for `Cc1cccc2nc(-c3ccccn3)c(Nc3ccc(F)cc3)n12`, 6.75 min.

Take `O=C(Nc1ccccc1O)c1ccc(NC(=O)C2CC2)cc1`: the half-life is above 30 min. In the case of `c1ccc(-c2csc3ncnc(Sc4nnn(-c5ccccc5)n4)c23)cc1`, the half-life was found to be 1.5 min. Consider `O=C1Nc2ccccc2/C1=C\c1ccc(O)c(F)c1`, for which the half-life was found to be 20 min.

In turn, `Oc1ccc(CNc2ccccc2F)c2cccnc12` registered a half-life of 3.7 min. The result for `CC[C@@](C)(Nc1ccnc(-c2c[nH]c3ncccc23)n1)C(=O)NCC(F)(F)F` reads 27.8 min. `CNC1CCC(N(Cc2ccc(OC)c(-c3ccc(C#N)cc3)c2)C(=O)c2sc3ccccc3c2Cl)CC1` (configuration not stated) showed a half-life above 30 min. Consider `Cc1ccc(C(=O)Nc2nc(-c3ccccn3)cs2)cc1S(=O)(=O)N1CCOCC1`, for which the half-life is 4.16 min. Consider `O=C(O)c1c(Sc2ccccc2)c2cc(Cl)ccc2n1Cc1ccc(Cl)cc1`, for which the half-life is 26.6 min. Regarding `CC1=C(C(=O)Nc2nc3ccccc3s2)C(c2[nH]ncc2Cl)N=C(Nc2nc3ccccc3o2)N1` (configuration not stated), the half-life stood at 10.4 min. As to `COc1cc(C(=O)N2CCN(c3cc(Cl)ccc3Cl)CC2)cc(OC)c1OC`, the half-life came out at 4.31 min. Take `FC(F)(F)c1cccc(N2CCN(C(=S)Nc3ccccn3)CC2)c1`: the half-life amounted to 15.5 min. This half-life is about 3.6-fold higher than that of the compound before.

`COc1ccccc1N1CCN(CCN(C(=O)c2ccc(I)cc2)c2ccccn2)CC1` gave a half-life of 1.49 min. `CC(NCc1ccc2c(c1)nc(NC(=O)c1ccc(-c3cn[nH]c3)s1)n2CC(C)(C)O)C(C)(C)C` (configuration not stated): the half-life is 18.8 min.

In turn, `O=C(O)c1ccccc1C(=O)Nc1ccc(-c2ccccc2)cc1` had a half-life above 30 min. For `CC1=C(C(=O)Nc2nncs2)C(c2nn(C)cc2Cl)N=C(Nc2nc3ccccc3o2)N1` (configuration not stated) the value was above 30 min; for `Cc1ccc(S(=O)(=O)Nc2ccc(F)cc2C(=O)Nc2nc(-c3ccccc3)cs2)cc1`, 3 min; for `CCOc1ccc(N2CC(c3nc(-c4ccccn4)no3)CC2=O)cc1` (configuration not stated), above 30 min.

In turn, `Cc1ccc(S(=O)(=O)N(C)c2ccccc2C(=O)Nc2nc(-c3ccccc3)cs2)cc1` came in with a half-life of 1.7 min. As for `Cc1ccc2c(c1)N(S(=O)(=O)c1cc(-c3onc(C)c3C)ccc1C)CCO2`, the half-life stood at 1.56 min. For `Cn1cc(-c2nc(Nc3ccc(F)c(F)c3)c3ccccc3n2)cn1` the value was 21 min; for `CCN1C(=O)c2ccccc2S(=O)c2ccc(C(=O)NCc3ccccc3)cc21` (configuration not stated), 8.12 min. Compound `O=C(O)C1CCN(c2ncc(-c3ccc4c(c3)OCCCO4)s2)CC1` came in with a half-life above 30 min.

`O=[S+]([O-])(Nc1cnc2ccccc2c1)c1ccc(NCc2ccc(Cl)cc2O)cc1` registered a half-life of 18 min. Compound `Cc1cc(N=Nc2ccc(S(=O)(=O)Nc3ccccn3)cc2)c(N)cc1O` gave a half-life above 30 min. In turn, `CCCCCOc1ccccc1/C(=C\SC)n1ccnc1` gave a half-life of 6.67 min. The result for `CCOC(=O)Nc1ccc(NCc2ccc(F)cc2)nc1N` reads above 30 min; that for `O=S(=O)(c1ccc(Cl)cc1)c1ccccn1`, above 30 min. In turn, `O=C(NCCCO)c1ccc(-c2ncc3cnc(-c4cccc(F)c4)cn23)cc1` returned a half-life above 30 min. For `CNc1nccc(-c2cccc3ccccc23)n1` the value was 7.7 min; for `COC(=O)c1ccc([C@H]2c3[nH]c4ccccc4c3C[C@H](C(=O)OC)N2C(=O)CCl)cc1`, 4.02 min; for `COc1cccc(CN(C)c2ccc([S+](=O)([O-])Nc3nccs3)cc2)c1O`, above 30 min. In turn, `CC(C)(N)CNC(=O)CC1CCC2(CC1)OOC1(O2)C2CC3CC(C2)CC1C3` (configuration not stated) displayed a half-life above 30 min.

Consider `COC(=O)c1ccnc(-c2cc(C(=O)Nc3ccc(C4(N)CC4)cc3)ccn2)c1`, for which the half-life is above 30 min. In turn, `CCOC(=O)N1CCN(Cc2nc3cc(NC(=O)CC(C)C)ccc3n2C(C)C)CC1` yielded a half-life above 30 min.

Consider `O=C1CCCC2=C1C(c1[nH]ncc1Cl)N=C(Nc1nc3ccc(F)cc3o1)N2` (configuration not stated), for which the half-life was 14 min. For `Cc1cc(C)nc(NC(=S)N2CCN(c3cccc(OC(F)F)c3)CC2)c1` the value was above 30 min; for `Cc1ccc(NC(=O)c2cc(-c3ccc[nH]3)n[nH]2)cc1F`, 6.16 min.

For `CCCCCCN(CCCCCC)C(=O)Cc1c(-c2ccc(F)cc2)[nH]c2ccccc12`, the half-life was 2.5 min. As for `Cc1ccc(S(=O)(=O)Nc2cc(Cl)c(Cl)cc2C(=O)Nc2nc(-c3ccccc3)cs2)cc1`, the half-life is 13 min. Consider `Cc1ccc(NS(=O)(=O)c2ccc3c(c2)NC(=O)CO3)cc1C`, for which the half-life is 3.13 min. The compound `FC(F)(F)c1ccccc1-c1nc(NCc2ccccc2)c2ccccc2n1` yielded a half-life of 2.74 min.

Take `COc1cccc(CNC(=O)CCCn2nc(C)c3c(C)n(-c4ccc(C)cc4)nc3c2=O)c1OC`: the half-life worked out at 1.07 min.

For `CSc1nc(N)cc(Oc2ccc(-c3nc(Nc4cccc(C(F)(F)F)c4)n[nH]3)cc2)n1`, the half-life was 21.2 min. Turning to `Nc1nc2c(s1)C(c1cc(Cl)ccc1F)CC(=O)N2` (configuration not stated), the half-life is above 30 min.

`O=c1[nH]c(C2CCN(S(=O)(=O)c3ccc4c(c3)OCCO4)CC2)nc2c1nnn2Cc1c(F)cccc1Cl` had a half-life of 1.4 min. In turn, `O=[S+]([O-])(Nc1ccc(C2CCNCC2)cc1)c1ccc(NCc2ccc(Cl)cc2O)cc1` came in with a half-life above 30 min.

For the compound `CCOC(=O)c1cc(-c2ccco2)nc2c1c(C)nn2CCC#N`, the half-life was 3.57 min.

The compound `Cc1nc(-c2ccccc2)cc([C@H]2CN3CC[C@H]2C[C@@H]3CNC2CCOCC2)n1` came in with a half-life above 30 min. `CC(=O)c1c(C)[nH]c(C(=O)Nc2ccc(C)c(S(=O)(=O)N3CCCCCC3)c2)c1C` displayed a half-life of 1.9 min. In turn, `CC(C)(O)Cn1c(NC(=O)c2ccc(-c3cn[nH]c3)s2)nc2cc(CN3CCOCC3)ccc21` displayed a half-life of 14 min. This half-life is about 7.4-fold higher than that of the compound before. The result for `O=S(=O)(Nc1nc2n(n1)C(c1ccccc1)C=C(c1ccc(Cl)cc1)N2)c1ccccc1` (configuration not stated) reads above 30 min; that for `O=C(c1cnc(N2CCCCC2)c2ccccc12)N1CCN(c2ccc(Cl)cc2)CC1`, 2.8 min; that for `Fc1cccc(F)c1Nc1nc(-c2ccncc2)nc2ccccc12`, 29 min. `O=C(Nc1nc(-c2ccccc2)cs1)c1ccncc1NS(=O)(=O)c1ccc(Cl)cc1` yielded a half-life of 18.2 min. Against the preceding compound, the half-life is about 1.6-fold lower.

Consider `CC(CCc1ccc(O)cc1)NCc1ccc(Cl)cc1Cl` (configuration not stated), for which the half-life came to 1.7 min. Compound `O=C1Nc2cccc(Cl)c2/C1=C\c1cc(Cl)c(O)c(Cl)c1` returned a half-life above 30 min.

`CNc1oc(-c2cccc(Cl)c2Cl)nc1C#N` displayed a half-life of 9.65 min.

As to `NC(=O)C1CCN(c2nc(-c3cccc(F)c3)cs2)CC1`, the half-life was found to be 1.95 min. Take `Cn1ncnc1[C@H]1c2n[nH]c(=O)c3cc(F)cc(c23)N[C@@H]1c1ccc(F)cc1`: the half-life is above 30 min. The compound `COc1ccc(-c2csc(N3CCC(C(N)=O)CC3)n2)cc1` yielded a half-life of 4.68 min. As to `COc1ccc(S(=O)(=O)Nc2cnccc2C(=O)Nc2nc(-c3ccccc3)cs2)cc1`, the half-life stood at 1.6 min. Regarding `c1ccc2c(Nc3nccs3)nc(-c3ccncc3)nc2c1`, the half-life was found to be 6.4 min. In turn, `Cc1ccc(S(=O)(=O)Nc2ccncc2C(=O)Nc2nc(-c3ccccc3)cs2)cc1` had a half-life above 30 min.

Regarding `Cc1ccc(S(=O)(=O)Nc2ccc(C)cc2C(=O)Nc2nc(-c3ccccc3)cs2)cc1`, the half-life was 3.7 min. The compound `C[C@H]1CN(C(=O)Nc2ccc(F)cc2)C[C@@H]1c1nc(-c2ccccc2)no1` returned a half-life above 30 min. For the compound `Cn1nnnc1Sc1ncnc2sc(-c3ccccc3)cc12`, the half-life amounted to 12.3 min. `COc1ccc(-n2nc(C3CCN(C(=O)c4ccccc4)CC3)[nH]c2=O)cc1` gave a half-life above 30 min. Regarding `CCOc1ccc(C2C(C(=O)Nc3ccccc3OC)=C(C)Nc3c(C(=O)Nc4cccc(C)c4)cnn32)cc1` (configuration not stated), the half-life was 4.18 min.

On to `COc1cccc(CNc2ccc(S(=O)(=O)Nc3nccs3)cc2)c1N`, for which the half-life is above 30 min. The result for `COc1ccc(-n2c(C)cc(-c3nnc4n3CCCCC4)c2C)cc1` reads 2.4 min.

Compound `CCOc1ccccc1CNS(=O)(=O)c1ccc(-c2cnc(C3CC3)o2)cc1` had a half-life of 1.64 min. The compound `N#Cc1cccc(Nc2ncc(-c3cccc4ccccc34)o2)c1` displayed a half-life above 30 min. With `CN(C)CCNC(=O)c1nc2nc(-c3ccccc3)c(-c3cccc(Cl)c3)cc2n1C`, the half-life was above 30 min. In turn, `CSc1ccccc1N1CCN(CCCCCC(=O)NC2CCCc3ccccc32)CC1` (configuration not stated) yielded a half-life of 2.21 min. The compound `C[C@H]1CN(C(=O)c2nn(C)c3ccccc23)C[C@@H]1c1nc(-c2ccncc2)no1` returned a half-life of 5.01 min.

`CCOC(=O)C1CCN(C(=O)C(C)(C)NC(=O)Nc2ccc(Cl)cc2Cl)CC1` came in with a half-life of 1.36 min. As to `Nc1nc(N)c2c(OCC3CCN(Cc4ccccc4F)CC3)cccc2n1`, the half-life is above 30 min. Regarding `CN(C)CCOC1=Cc2ccccc2Sc2ccc(Cl)cc21`, the half-life was found to be 1.29 min. `Cc1ccc(NS(=O)(=O)c2ccc(C(=O)Nc3nc(-c4ccccc4)cs3)cc2)cc1` registered a half-life of 6.5 min. Regarding `c1ccc2c(Nc3ccc4nc[nH]c4c3)nc(-c3ccncc3)nc2c1`, the half-life was 16 min. As for `Cc1ccc(S(=O)(=O)Nc2ccccc2Nc2nc(-c3ccccc3)cs2)cc1`, the half-life was determined as 1.7 min. Against the preceding compound, the half-life is about 9.4-fold lower.
